# Reference: US5401761A, “Thiazolidinedione hypoglycemic agents” (Pfizer, Inc., priority 1993, dated 1995)
# System: OB/OB MOUSE
# Test: Hypoglycemic activity in the ob/ob mouse
# Assay type: in vivo, mouse (C57 BL/6J-ob/ob)
# Conditions: ob/ob mouse; dosed daily for five days; positive control ciglitazone 50 mg/kg; X = H; 7200 min
# Source text: The present compounds of the formula (I) are readily adapted to clinical use as hypoglycemic or hypocholesterolemic agents. The activity required for the former clinical use is defined by the test for hypoglycemic effect in ob/ob mice by the following procedure:
# Five to eight week old C57 BL/6J-ob/ob mice (obtained from Jackson Laboratory, Bar Harbor, Me.) were housed five per cage under standard animal care practices. After a one week acclimation period, the animals were weighed and 25 microliters of blood was collected via an ocular bleed prior to any treatment. The blood sample was immediately diluted 1:5 with saline containing 2.5 mg/ml sodium fluoride and 2% sodium heparin, and held on ice for metabolite analysis. […] Bull., vol. […] All drugs were administered in a vehicle consisting of 0.25% w/v methyl cellulose. On day 5, the animals were weighed again and bled (via the ocular route) for blood metabolite levels. The freshly collected samples were centrifuged for two minutes at […] at room temperature. The supernatant was analyzed for glucose, for example, by the ABA 200 Bichromatic Analyzer™*, using the A-gent™^1 glucose UV reagent system*^2 (hexokinase method) using 20, 60 and 100 mg/dl standards. Plasma glucose was then calculated by the equation,
# Test compounds are reported in terms of % glucose normalization. For example, a glucose level which is the same as the positive control is reported as 100%.
row,Structure (SMILES),"ED50 (Present Invention, X = H): concentration required to give hypoglycemic activity equivalent to 50% of the positive control [mg/kg]"
1,"Cc1oc(C2CCCCC2)nc1Cc1cc2cc(CC3SC(=O)NC3=O)ccc2o1 (stereo not drawn) [cyclohexyl, X = H, 5-[(2-(2-cyclohexyl-5-methyl-4-oxazolyl)methyl)-5-benzofuranylmethyl]-2,4-thiazolidinedione]",0.05
2,"Cc1oc(-c2cccc(F)c2)nc1Cc1cc2cc(CC3SC(=O)NC3=O)ccc2o1 (stereo not drawn) [m-fluorophenyl, X = H, 5-[(2-(2-(3-fluorophenyl)-5-methyl-4-oxazolyl)methyl)-5-benzofuranylmethyl]-2,4-thiazolidinedione]",0.05
3,"Cc1cccc(-c2nc(Cc3cc4cc(CC5SC(=O)NC5=O)ccc4o3)c(C)o2)c1 (stereo not drawn) [m-methylphenyl, X = H, 5-[(2-(5-methyl-2-(3-methylphenyl)-4-oxazolyl)-methyl)-5-benzofuranylmethyl]2,4-thiazolidinedione]",< 0.005
4,"Cc1oc(-c2ccccc2F)nc1Cc1cc2cc(CC3SC(=O)NC3=O)ccc2o1 (stereo not drawn) [o-fluorophenyl, X = H, 5-[(2-(2-(2-fluorophenyl)-5-methyl-4-oxazolyl)methyl)-5-benzofuranylmethyl]-2,4-thiazolidinedione]",0.01
5,"Cc1ccccc1-c1nc(Cc2cc3cc(CC4SC(=O)NC4=O)ccc3o2)c(C)o1 (stereo not drawn) [o-methylphenyl, X = H]",0.05
6,"Cc1oc(-c2ccc(Cl)cc2)nc1Cc1cc2cc(CC3SC(=O)NC3=O)ccc2o1 (stereo not drawn) [p-chlorophenyl, X = H, 5-[(2-(2-(4-chlorophenyl)-5-methyl-4-oxazolyl)methyl)-5-benzofuranylmethyl]-2,4thiazolidinedione]",0.05
7,"Cc1ccc(-c2nc(Cc3cc4cc(CC5SC(=O)NC5=O)ccc4o3)c(C)o2)cc1 (stereo not drawn) [p-methylphenyl, X = H, 5-[(2-(5-methyl-2-(4-methylphenyl)-4-oxazolyl)-methyl)-5-benzofuranylmethyl]-2,4-thiazolidinedione]",0.05
8,"Cc1oc(-c2ccccc2)nc1Cc1cc2cc(CC3SC(=O)NC3=O)ccc2o1 (stereo not drawn) [phenyl, X = H, 5-[(2-(5-Methyl-2-phenyl-4-oxazolyl)methyl)-5-benzofuranylmethyl]-2,4-thiazolidinedione]",0.01
9,"Cc1oc(C(C)(C)C)nc1Cc1cc2cc(CC3SC(=O)NC3=O)ccc2o1 (stereo not drawn) [tert-butyl, X = H, 5-[(2-(5-methyl-2-(1,1-dimethylethyl)-4-oxazolyl)-methyl)-5-benzofuranylmethyl]-2,4-thiazolidinedione]",0.10

# Same assay, conditions: ob/ob mouse; dosed daily for five days; positive control ciglitazone 50 mg/kg; X = OH; 7200 min
row,Structure (SMILES),"ED50 (EP 299620A, X = OH): concentration required to give hypoglycemic activity equivalent to 50% of the positive control [mg/kg]"
1,"Cc1oc(-c2cccc(F)c2)nc1C(O)c1cc2cc(CC3SC(=O)NC3=O)ccc2o1 (stereo not drawn) [m-fluorophenyl, X = OH, reference compound]",0.50
2,"Cc1cccc(-c2nc(C(O)c3cc4cc(CC5SC(=O)NC5=O)ccc4o3)c(C)o2)c1 (stereo not drawn) [m-methylphenyl, X = OH, reference compound]",0.05 to 0.1
3,"Cc1oc(-c2ccccc2F)nc1C(O)c1cc2cc(CC3SC(=O)NC3=O)ccc2o1 (stereo not drawn) [o-fluorophenyl, X = OH, reference compound]",0.50
4,"Cc1ccccc1-c1nc(C(O)c2cc3cc(CC4SC(=O)NC4=O)ccc3o2)c(C)o1 (stereo not drawn) [o-methylphenyl, X = OH, reference compound]",> 1
5,"Cc1oc(-c2ccccc2)nc1C(O)c1cc2cc(CC3SC(=O)NC3=O)ccc2o1 (stereo not drawn) [phenyl, X = OH, 5-[(2-(5-Methyl-2-phenyl-4-oxazolyl)hydroxymethyl)-5-benzofuranylmethyl]-2,4-thiazolidinedione, reference compound]",0.25

# Same assay, conditions: positive control (50 mg/kg) of ciglitazone, daily for five days; vehicle e.g. 250 mg/dl
row,Structure (SMILES),glucose level of positive control animals [mg/dL]
1,"CC1(COc2ccc(CC3SC(=O)NC3=O)cc2)CCCCC1 (stereo not drawn) [positive control, ciglitazone, reference compound]",~130
